US12502371B2, “Drug for treating and preventing dementia” (Numan Labo LLC, priority 2019, dated 2025)

Tested on: mice
Test: Y-maze test in mice given scopolamine
Type: in vivo, mouse
Conditions: based on total motor activity and correct alternation rate, scopolamine-treated mice
Method: The Y-maze test was performed in mice divided into three types A, B, and C. The mice were placed in a Y-maze and allowed to move freely for 6 minutes. The sequence of entries into each arm and the total number of arm entries were measured since mice have the habit of always choosing a new arm of the maze. In order to evaluate the degree of memory impairment, the correct alternation rate was calculated based on the percentage of correct arm entries out of the total number of arm entries. Mice of types A, B, and C received drugs as shown below. […] The total number of entries and percentage of correct alternations were analyzed based on data obtained from the Y-maze test. Four mice from each type were examined. The following animals were used in the experiments. • Species: mouse • Strain: Crj:ICR • Sex: male • Age in weeks: 4

Structure (SMILES): COc1ccccc1OCC(O)COC(N)=O (stereo not shown) [Methocarbamol, methocarbamol]
- Effect on cognitive function (in words): had the effect of improving cognitive function
